Results reported in patent US7192983B2, “N-protected/N-substituted-beta-amino hydroxy sulfonates” (G.D. Searle & Co., priority 1995, dated 2007).

Assay: Determination of storage stability at ambient temperature (purity by HPLC)
Assay type: physicochemical
Method: 2S-[Bis (phenylmethyl) amino]-1-hydroxy-3-phenylpropyl sulfonic acid, sodium salt (5 grams) was treated with stirring with an aqueous solution of 5 grams of potassium carbonate in 50 mL of water at room temperature. The aqueous solution was extracted once with a 50 mL portion of ethyl acetate. The organic solvent solutions were combined and removed under reduced pressure. The residue was dissolved in the tetrahydrofuran (THF), filtered through a cotton filter plug and the solvent removed under reduced pressure. […] The samples were placed on the column diluted in 90% hexane, 5% isopropanol and 5% tert-butylmethyl ether.
The experiment extended through 61 days with purity determinations made on days 0 (t=0), 3 (t=3), 6 (t=6), 18 (t=18) and 61 (t=61). A sample of the salt was treated with aqueous potassium carbonate and extracted with ethyl acetate on day 0. The ethyl acetate was removed under reduced pressure to provide the aldehyde and this sample was used as a t=0 […] reference standard for the stability determination (“Aldehyde Sample”). The t=0 sample of the aldehyde was then stored at ambient temperature in a capped, brown glass bottle side by side with the stored sample of the salt. The purity of the salt was then measured on days 3 (t=3), 8 (t=8), 15 (t=15) and 21 (t=21).

O=C[C@H](Cc1ccccc1)N(Cc1ccccc1)Cc1ccccc1 [Aldehyde Sample, 2S-[bis(phenylmethyl)amino]-3-phenylpropanal]
% aldehyde remaining (day 8, stored at ambient temperature in capped brown glass bottle): 64% | % aldehyde remaining (day 15, stored at ambient temperature in capped brown glass bottle): 23% | % aldehyde remaining (day 18, stored at ambient temperature in capped brown glass bottle): 10%
